Measured values: US9221807B2, “Substituted pyridones and pyrazinones and their use as inhibitors of neutrophil elastase activity” (Boehringer Ingelheim International GmbH, priority 2014, dated 2015)

The molecules below were run against T1, Human neutrophil elastase (Homo sapiens, UniProt P08246) (assay: Human Neutrophil Elastase Assay). Details: substrate MeOSuc-Ala-Ala-Pro-Val-AMC 250 μM, pH 7.5, fluorescence.
T1 construct: purchased Calbiochem 324681
T1 sequence (P08246 30-267): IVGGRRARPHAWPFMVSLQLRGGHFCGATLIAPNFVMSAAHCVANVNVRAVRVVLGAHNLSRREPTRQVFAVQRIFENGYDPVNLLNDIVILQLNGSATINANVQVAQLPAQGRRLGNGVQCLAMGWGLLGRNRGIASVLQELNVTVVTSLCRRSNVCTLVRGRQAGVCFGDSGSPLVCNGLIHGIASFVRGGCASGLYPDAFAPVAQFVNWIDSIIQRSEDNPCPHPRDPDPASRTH
Format: biochemical
Method: Human Neutrophil Elastase Assay
Materials: Human neutrophil elastase was purchased from Calbiochem (Cat. No.: 324681) and the elastase substrate MeOSuc-Ala-Ala-Pro-Val-AMC from Bachem (Cat. No.: 1-1270). All other materials were of the highest grade commercially available. The following buffers were used: Compound buffer: 100 mM Tris, 500 mM NaCl, adjusted to pH 7.5; Assay buffer: 100 mM Tris, 500 mM NaCl, adjusted to pH 7.5, containing 0.01% BSA. Assay conditions: Test compounds were prediluted in DMSO and subsequently in compound buffer (5% DMSO final). 5 μL of these compound dilutions were mixed with 10 μl Neutrophil elastase (9 ng/ml in assay buffer) in a black 384 well OptiPlate (Perkin Elmer, Cat No.: 6007270) and incubated for 15 min at room temperature. Subsequently 10 μL substrate solution in assay buffer were added (250 μM final concentration) and the plates were incubated for 60 min at room temperature. After inactivation of the enzyme, fluorescence intensities were measured at 380 nm excitation and 460 nm emission wavelengths. Each plate contains wells with a high value control (DMSO+enzyme+substrate) and wells with a low value control (DMSO+inactivated enzyme+substrate). IC50 values were estimated using a sigmoidal concentration response curve with variable slope. Means of low values were taken as 0%, means of high values as 100%.

Row | SMILES | IC50 [µM]
1 | Cc1c(-c2ccnn2-c2ccc(C#N)cc2)nc(C(=O)NCc2ccc(S(C)(=O)=NC#N)cc2)c(=O)n1-c1cccc(C(F)(F)F)c1 (single isomer, unassigned) [Example 17, N-[[4-(N-Cyano-S-methyl-sulfonimidoyl)phenyl]methyl]-6-[2-(4-cyanophenyl)pyrazol-3-yl]-5-methyl-3-oxo-4-[3-(trifluoromethyl)phenyl]pyrazine-2-carboxamide] | < 0.001
2 | CN=S(=O)(NCc1ccccc1)c1ccc(CNC(=O)c2cc(-c3ccnn3C)c(C)n(-c3cccc(C(F)(F)F)c3)c2=O)cc1 (centres unmarked) [Example 1.2] | 0.0144
3 | CN=S(=O)(c1ccc(CNC(=O)c2cc(-c3ccnn3C)c(C)n(-c3cccc(C(F)(F)F)c3)c2=O)cc1)N(C)OC (centres unmarked) [Example 1.3] | 0.0125
4 | COCCN=S(C)(=N)c1ccc(CNC(=O)c2cc(-c3ccnn3C)c(C)n(-c3cccc(C(F)(F)F)c3)c2=O)cc1 (centres unmarked) [Example 15, N-[[4-[N-(2-Methoxyethyl)-S-methyl-sulfonodiimidoyl]phenyl]methyl]-6-methyl-5-(2-methylpyrazol-3-yl)-2-oxo-1-[3-(trifluoromethyl)phenyl]pyridine-3-carboxamide] | 0.0435
5 | Cc1c(-c2ccnn2C)cc(C(=O)NCc2ccc(S(C)(=N)=NC#N)cc2)c(=O)n1-c1cccc(C(F)(F)F)c1 (centres unmarked) [Example 15.2] | 0.0067
6 | Cc1c(-c2ccnn2C)cc(C(=O)NCc2ccc(/S(C)=N/C#N)cc2)c(=O)n1-c1cccc(C(F)(F)F)c1 (centres unmarked) [Example 1, N-[[4-(N-Cyano-S-methyl-sulfinimidoyl)phenyl]methyl]-6-methyl-5-(2-methyl-pyrazol-3-yl)-2-oxo-1-[3-(trifluoromethyl)phenyl]pyridine-3-carboxamide] | 0.0012
7 | Cc1c(-c2ccnn2C)nc(C(=O)NCc2ccc(S(C)(=O)=NC#N)cc2)c(=O)n1-c1cccc(C(F)(F)F)c1 (single isomer, unassigned) [Example 16, N-[[4-(N-Cyano-S-methyl-sulfonimidoyl)phenyl]methyl]-5-methyl-6-(2-methylpyrazol-3-yl)-3-oxo-4-[3-(trifluoromethyl)phenyl]pyrazine-2-carboxamide] | 0.0111
8 | CN=S(=O)(c1ccc(CNC(=O)c2cc(-c3ccnn3C)c(C)n(-c3cccc(C(F)(F)F)c3)c2=O)cc1)N(C)C (centres unmarked) [Example 1.1] | 0.0114
9 | Cc1c(-c2ccnn2C)cc(C(=O)NCc2ccc(S(C)(=O)=NC(=O)N3CCOCC3)cc2)c(=O)n1-c1cccc(C(F)(F)F)c1 (centres unmarked) [Example 9.2] | 0.0727
10 | CN=S(=O)(c1ccc(CNC(=O)c2cc(-c3ccnn3C)c(C)n(-c3cccc(C(F)(F)F)c3)c2=O)cc1)N1CCCCC1 (stereo not drawn) [Example 13, 6-Methyl-N-[[4-[N-methyl-S-(1-piperidyl)sulfonimidoyl]phenyl]methyl]-5-(2-methyl-pyrazol-3-yl)-2-oxo-1-[3-(trifluoromethyl)phenyl]pyridine-3-carboxamide] | 0.0284
11 | Cc1nc(N=S(C)(=O)c2ccc(CNC(=O)c3cc(-c4ccnn4C)c(C)n(-c4cccc(C(F)(F)F)c4)c3=O)cc2)oc1C (centres unmarked) [Example 7, N-[[4-[N-(4,5-Dimethyloxazol-2-yl)-S-methyl-sulfonimidoyl]phenyl]methyl]-6-methyl-5-(2-methylpyrazol-3-yl)-2-oxo-1-[3-(trifluoromethyl)phenyl]pyridine-3-carboxamide] | 0.0343
12 | Cc1c(-c2ccnn2C)cc(C(=O)NCc2ccc(/S(C)=N/C(N)=O)cc2)c(=O)n1-c1cccc(C(F)(F)F)c1 (centres unmarked) [Example 5, N-[[4-(N-Carbamoyl-S-methyl-sulfinimidoyl)phenyl]methyl]-6-methyl-5-(2-methyl-pyrazol-3-yl)-2-oxo-1-[3-(trifluoromethyl)phenyl]pyridine-3-carboxamide] | 0.0357
13 | Cc1c(-c2ccnn2C)cc(C(=O)NCc2ccc(S(C)=N)cc2)c(=O)n1-c1cccc(C(F)(F)F)c1 (centres unmarked) [Example 2, 6-Methyl-5-(2-methylpyrazol-3-yl)-N-[[4-(methylsulfinimidoyl)phenyl]methyl]-2-oxo-1-[3-(trifluoromethyl)phenyl]pyridine-3-carboxamide] | 0.042
14 | Cc1c(-c2ccnn2C)cc(C(=O)NCc2ccc(S(C)(=N)=N)cc2)c(=O)n1-c1cccc(C(F)(F)F)c1 [Example 14, 6-Methyl-5-(2-methylpyrazol-3-yl)-N-[[4-(methylsulfonodiimidoyl)phenyl]methyl]-2-oxo-1-[3-(trifluoromethyl)phenyl]pyridine-3-carboxamide] | 0.261

Other lines, results leading:

Row | IC50 [µM] | SMILES
15 | 0.037 | CC(=O)N=S(C)(=O)c1ccc(CNC(=O)c2cc(-c3ccnn3C)c(C)n(-c3cccc(C(F)(F)F)c3)c2=O)cc1 (centres unmarked) [Example 9.1]
16 | 0.0458 | Cc1c(-c2ccnn2C)cc(C(=O)NCc2ccc(S(C)(=O)=NC(N)=O)cc2)c(=O)n1-c1cccc(C(F)(F)F)c1 (centres unmarked) [Example 6, N-[[4-(N-Carbamoyl-S-methyl-sulfonimidoyl)phenyl]methyl]-6-methyl-5-(2-methyl-pyrazol-3-yl)-2-oxo-1-[3-(trifluoromethyl)phenyl]pyridine-3-carboxamide]
17 | 0.05 | CNC(=O)N=S(C)(=O)c1ccc(CNC(=O)c2cc(-c3ccnn3C)c(C)n(-c3cccc(C(F)(F)F)c3)c2=O)cc1 (centres unmarked) [Example 10, 6-Methyl-N-[[4-[S-methyl-N-(methylcarbamoyl)sulfonimidoyl]phenyl]methyl]-5-(2-methylpyrazol-3-yl)-2-oxo-1-[3-(trifluoromethyl)phenyl]pyridine-3-carboxamide]
18 | 0.0023 | Cc1c(-c2ccnn2C)cc(C(=O)NCc2ccc(S(C)(=O)=NC#N)cc2)c(=O)n1-c1cccc(C(F)(F)F)c1 (single isomer, unassigned) [Example 3B]
19 | 0.0887 | CN=S(C)(=N)c1ccc(CNC(=O)c2cc(-c3ccnn3C)c(C)n(-c3cccc(C(F)(F)F)c3)c2=O)cc1 (centres unmarked) [Example 15.1]
20 | 0.0644 | Cc1c(-c2ccnn2C)cc(C(=O)NCc2ccc(S(C)(=O)=N/C(N)=N/O)cc2)c(=O)n1-c1cccc(C(F)(F)F)c1 (centres unmarked) [Example 8, N-[[4-[N—[N-Hydroxycarbamimidoyl]-S-methyl-sulfonimidoyl]phenyl]methyl]-6-methyl-5-(2-methylpyrazol-3-yl)-2-oxo-1-[3-(trifluoromethyl)phenyl]pyridine-3-carboxamide]
21 | 0.0026 | Cc1c(-c2ccnn2C)cc(C(=O)NCc2ccc(S(C)(=O)=NC#N)cc2)c(=O)n1-c1cccc(C(F)(F)F)c1 (racemic) [Example 3, N-[[4-(N-Cyano-S-methyl-sulfonimidoyl)phenyl]methyl]-6-methyl-5-(2-methylpyrazol-3-yl)-2-oxo-1-[3-(trifluoromethyl)phenyl]pyridine-3-carboxamide]
22 | 0.0126 | Cc1c(-c2ccnn2C)cc(C(=O)NCc2ccc(S(C)(=O)=NS(C)(=O)=O)cc2)c(=O)n1-c1cccc(C(F)(F)F)c1 (centres unmarked) [Example 9.3]
23 | 0.005 | Cc1c(-c2ccnn2C)cc(C(=O)NCc2ccc(S(C)(=O)=N[N+](=O)[O-])cc2)c(=O)n1-c1cccc(C(F)(F)F)c1 (centres unmarked) [Example 12, 6-Methyl-N-[[4-(S-methyl-N-nitro-sulfonimidoyl)phenyl]methyl]-5-(2-methylpyrazol-3-yl)-2-oxo-1-[3-(trifluoromethyl)phenyl]pyridine-3-carboxamide]
24 | 0.0045 | Cc1c(-c2ccnn2C)cc(C(=O)NCc2ccc(S(C)(=O)=NC#N)cc2)c(=O)n1-c1cccc(C(F)(F)F)c1 (single isomer, unassigned) [Example 3A]
25 | 0.0415 | Cc1c(-c2ccnn2C)cc(C(=O)NCc2ccc(S(C)(=N)=O)cc2)c(=O)n1-c1cccc(C(F)(F)F)c1 (single isomer, unassigned) [Example 4B]
26 | 0.173 | Cc1c(-c2ccnn2C)cc(C(=O)NCc2ccc(S(C)(=N)=O)cc2)c(=O)n1-c1cccc(C(F)(F)F)c1 (racemic) [Example 4, 6-Methyl-5-(2-methylpyrazol-3-yl)-N-[[4-(methylsulfonimidoyl)phenyl]methyl]-2-oxo-1-[3-(trifluoromethyl)phenyl]pyridine-3-carboxamide]
27 | 0.0176 | COC(=O)N=S(C)(=O)c1ccc(CNC(=O)c2cc(-c3ccnn3C)c(C)n(-c3cccc(C(F)(F)F)c3)c2=O)cc1 (centres unmarked) [Example 9, Methyl N-[Methyl-[4-[[[6-methyl-5-(2-methylpyrazol-3-yl)-2-oxo-1-[3-(trifluoromethyl)phenyl]pyridine-3-carbonyl]amino]methyl]phenyl]-oxo-λ^6-sulfanylidene]-carbamate]
28 | 0.0939 | Cc1c(-c2ccnn2C)cc(C(=O)NCc2ccc(S(C)(=N)=O)cc2)c(=O)n1-c1cccc(C(F)(F)F)c1 (single isomer, unassigned) [Example 4A]
29 | 0.0403 | CN=S(C)(=O)c1ccc(CNC(=O)c2cc(-c3ccnn3C)c(C)n(-c3cccc(C(F)(F)F)c3)c2=O)cc1 (centres unmarked) [Example 11, N-[[4-(N,S-Dimethylsulfonimidoyl)phenyl]methyl]-6-methyl-5-(2-methylpyrazol-3-yl)-2-oxo-1-[3-(trifluoromethyl)phenyl]pyridine-3-carboxamide]
